Results published in ChEMBL document CHEMBL4406870, “Design, synthesis, and biological evaluation of 4-phenoxyquinoline derivatives as potent c-Met kinase inhibitor” (Bioorg Med Chem Lett, 2019).

Columns and labels:
A549 [1] = experiment: cells; conditions: Homo sapiens, A549, 72 h
Description: Cytotoxicity against human A549 cells assessed as reduction in cell viability incubated for 72 hrs by MTT assay

NCI-H460 [2] = experiment: cells; conditions: Homo sapiens, NCI-H460, 72 h
Description: Cytotoxicity against human H460 cells assessed as reduction in cell viability incubated for 72 hrs by MTT assay

HT-29 [3] = experiment: cells; conditions: Homo sapiens, HT-29, 72 h
Description: Cytotoxicity against human HT-29 cells assessed as reduction in cell viability incubated for 72 hrs by MTT assay

MKN-45 = experiment: cells; conditions: Homo sapiens, MKN-45, 72 h
Description: Cytotoxicity against human MKN45 cells assessed as reduction in cell viability incubated for 72 hrs by MTT assay

U-87 MG = experiment: cells; conditions: Homo sapiens, 72 h
Description: Cytotoxicity against human U87MG cells assessed as reduction in cell viability incubated for 72 hrs by MTT assay

[4] = biological target: Hepatocyte growth factor receptor (Homo sapiens, UniProt P08581); experiment: Inhibition of cMET (unknown origin) using poly (Glu, Tyr) 4:1 as substrate incubated for 30 mins by HTRF assay
Chain of Hepatocyte growth factor receptor (P08581 whole entry): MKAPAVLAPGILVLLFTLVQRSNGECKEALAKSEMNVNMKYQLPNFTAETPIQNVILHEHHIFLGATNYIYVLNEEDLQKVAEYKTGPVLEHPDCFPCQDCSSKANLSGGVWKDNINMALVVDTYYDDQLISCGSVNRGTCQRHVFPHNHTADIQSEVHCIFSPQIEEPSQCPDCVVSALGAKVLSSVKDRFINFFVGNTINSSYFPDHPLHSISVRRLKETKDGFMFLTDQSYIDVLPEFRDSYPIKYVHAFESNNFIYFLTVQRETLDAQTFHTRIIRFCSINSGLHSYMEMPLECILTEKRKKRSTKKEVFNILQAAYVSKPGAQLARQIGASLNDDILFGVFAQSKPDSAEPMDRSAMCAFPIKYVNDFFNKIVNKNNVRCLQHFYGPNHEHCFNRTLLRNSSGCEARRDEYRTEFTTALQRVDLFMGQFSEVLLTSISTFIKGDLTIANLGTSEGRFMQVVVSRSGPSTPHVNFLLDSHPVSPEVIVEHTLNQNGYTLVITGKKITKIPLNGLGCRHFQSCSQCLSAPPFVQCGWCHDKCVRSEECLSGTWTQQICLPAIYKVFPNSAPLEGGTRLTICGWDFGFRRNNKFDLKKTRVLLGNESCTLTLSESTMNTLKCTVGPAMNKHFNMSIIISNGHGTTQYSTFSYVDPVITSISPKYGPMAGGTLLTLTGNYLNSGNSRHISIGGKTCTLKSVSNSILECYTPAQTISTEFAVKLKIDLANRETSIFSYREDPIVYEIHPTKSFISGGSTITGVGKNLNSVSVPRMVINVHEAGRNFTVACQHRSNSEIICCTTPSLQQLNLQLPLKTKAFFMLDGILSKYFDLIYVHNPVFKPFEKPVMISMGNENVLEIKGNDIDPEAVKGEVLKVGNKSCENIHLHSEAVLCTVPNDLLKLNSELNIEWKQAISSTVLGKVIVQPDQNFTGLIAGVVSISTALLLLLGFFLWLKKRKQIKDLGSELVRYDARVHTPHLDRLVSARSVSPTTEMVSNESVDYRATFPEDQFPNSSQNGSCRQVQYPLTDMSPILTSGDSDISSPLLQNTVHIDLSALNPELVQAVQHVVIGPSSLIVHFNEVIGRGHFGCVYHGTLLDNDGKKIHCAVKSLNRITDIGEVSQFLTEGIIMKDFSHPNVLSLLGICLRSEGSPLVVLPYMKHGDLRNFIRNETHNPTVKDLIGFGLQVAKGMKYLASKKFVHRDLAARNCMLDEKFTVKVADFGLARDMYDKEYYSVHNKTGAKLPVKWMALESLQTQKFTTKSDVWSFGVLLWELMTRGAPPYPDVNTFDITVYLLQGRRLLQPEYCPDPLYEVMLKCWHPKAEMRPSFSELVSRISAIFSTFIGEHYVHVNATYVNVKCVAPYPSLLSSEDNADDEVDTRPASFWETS

A549 [5] = experiment: Potency index, ratio of IC50 of foretinib to IC50 of compound for cytotoxicity against human A549 cells assessed as reduction in cell viability incubated for 72 hrs by MTT assay; type: functional
NCI-H460 [6] = experiment: Potency index, ratio of IC50 of foretinib to IC50 of compound for cytotoxicity against human H460 cells assessed as reduction in cell viability incubated for 72 hrs by MTT assay; type: functional
HT-29 [7] = experiment: Potency index, ratio of IC50 of foretinib to IC50 of compound for cytotoxicity against human HT-29 cells assessed as reduction in cell viability incubated for 72 hrs by MTT assay; type: functional

Row | SMILES | IC50 (A549 [1]) [nM] | IC50 (NCI-H460 [2]) [nM] | IC50 (HT-29 [3]) [nM] | IC50 (MKN-45) [nM] | IC50 (U-87 MG) [nM] | IC50 [4] [nM] | Ratio IC50 (A549 [5]) | Ratio IC50 (NCI-H460 [6]) | Ratio IC50 (HT-29 [7])
1 | COc1cc2c(Oc3ccc(NC(=O)c4nc5ccccc5n(Cc5ccc(F)cc5)c4=O)cc3F)ccnc2cc1OCCCN1CCN(C)CC1 | 2770 | 2240 | 1830 | 230 | 1730 |  |  |  | 
2 | COc1cc2c(Oc3ccc(NC(=O)c4nc5ccccc5n(C5CCCC5)c4=O)cc3F)ccnc2cc1OCCCN1CCCCC1 | 4360 | 3080 | 4190 | 1170 | 5210 |  |  |  | 
3 | COc1cc2c(Oc3ccc(NC(=O)c4nc5ccccc5n(CCc5ccccc5)c4=O)cc3F)ccnc2cc1OCCCN1CCCCC1 | 2360 | 2110 | 870 | 180 | 3620 |  |  |  | 
4 | COc1cc2c(Oc3ccc(NC(=O)c4nc5ccccc5n(Cc5ccc(F)cc5)c4=O)cc3F)ccnc2cc1OCCCN1CCOCC1 | 2020 | 930 | 2380 | 260 | 650 |  |  |  | 
5 | COc1cc2c(Oc3ccc(NC(=O)c4nc5ccccc5n(C5CCCC5)c4=O)cc3F)ccnc2cc1OCCCN1CCN(C)CC1 | 4370 | 2110 | 2490 | 3720 | 1590 |  |  |  | 
6 | COc1cc2c(Oc3ccc(NC(=O)c4nc5ccccc5n(C5CCCC5)c4=O)cc3F)ccnc2cc1OCCCN1CCOCC1 | 2480 | 1670 | 4030 | 3500 | 2990 |  |  |  | 
7 | COc1cc2c(Oc3ccc(NC(=O)c4nc5ccccc5n(Cc5ccccc5)c4=O)cc3F)ccnc2cc1OCCCN1CCOCC1 | 5330 | 6700 | 1120 | 2790 | 4280 |  |  |  | 
8 | COc1ccc(CCn2c(=O)c(C(=O)Nc3ccc(Oc4ccnc5cc(OCCCN6CCOCC6)c(OC)cc45)c(F)c3)nc3ccccc32)cc1 | 6230 | 2330 | 4940 | 230 | 12800 |  |  |  | 
9 | COc1cc2c(Oc3ccc(NC(=O)c4nc5ccccc5n(C5CCCC5)c4=O)cc3F)ccnc2cc1OCCCN1CCC(C)CC1 | 5790 | 2150 | 4430 | 3660 | 5390 |  |  |  | 

The next molecules have a lower IC50 (A549 [1]) than those just listed; values first:

Row | IC50 (A549 [1]) [nM] | IC50 (NCI-H460 [2]) [nM] | IC50 (HT-29 [3]) [nM] | IC50 (MKN-45) [nM] | IC50 (U-87 MG) [nM] | IC50 [4] [nM] | SMILES | Ratio IC50 (A549 [5]) | Ratio IC50 (NCI-H460 [6]) | Ratio IC50 (HT-29 [7])
10 | 1920 | 1070 | 1410 | 650 | 2740 |  | COc1cc2c(Oc3ccc(NC(=O)c4nc5ccccc5n(CCc5ccccc5)c4=O)cc3F)ccnc2cc1OCCCN1CCC(C)CC1 |  |  | 
11 | 1670 | 3300 | 790 | 4170 | > 10000 |  | COc1ccc(CCn2c(=O)c(C(=O)Nc3ccc(Oc4ccnc5cc(OCCCN6CCN(C)CC6)c(OC)cc45)c(F)c3)nc3ccccc32)cc1 |  |  | 
12 | 1290 | 870 | 720 | 220 | 2120 |  | COc1cc2c(Oc3ccc(NC(=O)c4nc5ccccc5n(Cc5ccc(F)cc5)c4=O)cc3F)ccnc2cc1OCCCN1CCCCC1 |  |  | 
13 | 1070 | 250 | 610 | 250 | 1670 |  | COc1cc2c(Oc3ccc(NC(=O)c4nc5ccccc5n(C5CCCCC5)c4=O)cc3F)ccnc2cc1OCCCN1CCC(C)CC1 |  |  | 
14 | 1040 | 450 | 960 | 310 | 1260 |  | COc1cc2c(Oc3ccc(NC(=O)c4nc5ccccc5n(CCc5ccccc5)c4=O)cc3F)ccnc2cc1OCCCN1CCN(C)CC1 |  |  | 
15 | 1010 | 450 | 940 | 480 | 1600 |  | COc1ccc(CCn2c(=O)c(C(=O)Nc3ccc(Oc4ccnc5cc(OCCCN6CCCCC6)c(OC)cc45)c(F)c3)nc3ccccc32)cc1 |  |  | 
16 | 910 | 1590 | 350 | 780 | 1350 |  | COc1cc2c(Oc3ccc(NC(=O)c4nc5ccccc5n(CCc5ccccc5)c4=O)cc3F)ccnc2cc1OCCCN1CCOCC1 |  |  | 
17 | 810 | 270 | 270 | 270 | 760 |  | COc1cc2c(Oc3ccc(NC(=O)c4nc5ccccc5n(C5CCCCC5)c4=O)cc3F)ccnc2cc1OCCCN1CCCCC1 |  |  | 
18 | 550 | 510 | 1220 | 410 | 2270 |  | COc1ccc(CCn2c(=O)c(C(=O)Nc3ccc(Oc4ccnc5cc(OCCCN6CCC(C)CC6)c(OC)cc45)c(F)c3)nc3ccccc32)cc1 |  |  | 
19 | 480 | 620 | 380 | 250 | 1960 | 2.56 | COc1cc2c(Oc3ccc(NC(=O)c4nc5ccccc5n(Cc5ccc(F)cc5)c4=O)cc3F)ccnc2cc1OCCCN1CCC(C)CC1 |  |  | 
20 | 390 | 180 | 380 | 180 | 810 | 1.42 | COc1cc2c(Oc3ccc(NC(=O)c4nc5ccccc5n(C5CCCCC5)c4=O)cc3F)ccnc2cc1OCCCN1CCOCC1 | 5 | 5 | 5
21 | 320 | 230 | 230 | 230 | 560 | 2.34 | COc1cc2c(Oc3ccc(NC(=O)c4nc5ccccc5n(C5CCCCC5)c4=O)cc3F)ccnc2cc1OCCCN1CCN(C)CC1 | 5 | 5 | 5
